PubChem BioAssay (NCI)
Several values for one entry are separate records, joined by “and”; a condition that tells them apart may be missing. Identical values can stand only once.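 Dose response: 5 concentrations. Exposure: 48 h. Format: 96-well plates. Endpoint: linear interpolation; highest concentration if not reached. GI50 is the concentration that inhibits growth by half. TGI marks complete inhibition of growth.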

Assays:
Assay in all cases: NCI tumour cell line growth inhibition, 48 h
NCI-H226 lung = system: NCI-H226 lung
SW-620 colon = system: SW-620 colon
HL-60(TB) leukemia = system: HL-60(TB) leukemia
NCI/ADR-RES ovarian = system: NCI/ADR-RES ovarian
HCC-2998 colon = system: HCC-2998 colon
MOLT-4 leukemia = system: MOLT-4 leukemia
SF-295 CNS = system: SF-295 CNS
KM12 colon = system: KM12 colon
CAKI-1 renal = system: CAKI-1 renal
K-562 leukemia = system: K-562 leukemia

| SMILES | GI50 (NCI-H226 lung) | TGI (NCI-H226 lung) | GI50 (SW-620 colon) | TGI (SW-620 colon) | GI50 (HL-60(TB) leukemia) | TGI (HL-60(TB) leukemia) | GI50 (NCI/ADR-RES ovarian) | TGI (NCI/ADR-RES ovarian) | GI50 (HCC-2998 colon) | TGI (HCC-2998 colon) | GI50 (MOLT-4 leukemia) | TGI (MOLT-4 leukemia) | GI50 (SF-295 CNS) | TGI (SF-295 CNS) | GI50 (KM12 colon) | TGI (KM12 colon) | GI50 (CAKI-1 renal) | TGI (CAKI-1 renal) | GI50 (K-562 leukemia) | TGI (K-562 leukemia) |
| --- | --- | --- | --- | --- | --- | --- | --- | --- | --- | --- | --- | --- | --- | --- | --- | --- | --- | --- | --- | --- |
| O=[N+]([O-])c1ccc(N2CCOCC2)c2c1no[n+]2[O-] | 2.91 µM | 17.5 µM | 1.18 µM | 2.48 µM | 0.632 µM | 2.52 µM | 1.54 µM | 12.3 µM | 1.53 µM | 7.25 µM | 0.85 µM | 3.43 µM | 1.08 µM | 4.67 µM | 1.14 µM | 2.48 µM | 0.443 µM | 1.89 µM | 1.65 µM | 3.57 µM |
| OC(C#Cc1ccccc1)(c1ccccc1)c1ccccc1 | – | 87.3 µM | – | > 100 µM | – | > 100 µM | – | > 100 µM | – | > 100 µM | – | > 100 µM | – | 77.7 µM | – | 78.4 µM | – | 61.8 µM | – | > 100 µM |
| CCCCCCNC(=O)Oc1ccc(/C(=C(\C)c2ccc(Cl)cc2)c2ccc(OCCN3CCCCC3)cc2)cc1 | 5.31 µM | 11.8 µM | 1.54 µM | 5.59 µM | 1.17 µM | 4.88 µM | 4.15 µM | 8.77 µM | 4.39 µM | 9.17 µM | 1.47 µM | 23.3 µM | 4.79 µM | 9.62 µM | 3.53 µM | 10.4 µM | 4.03 µM | 8.25 µM | 0.923 µM | 3.51 µM |
| C=CCN1CC(=O)N2[C@@H](Cc3ccc(O)cc3F)C(=O)N(Cc3cccc(N4CC(N5CCN(CC)CC5)C4)n3)C[C@@H]2N1C(=O)NCc1ccccc1 | 0.0461 µM | > 100 µM | 0.107 µM | > 100 µM | 0.226 µM | 26.5 µM | 2.19 µM | 32.8 µM | 0.0687 µM | > 100 µM | 0.0276 µM | – | 0.0965 µM | 1.02 µM | 0.111 µM | > 100 µM | 0.0507 µM | 0.504 µM | 0.0397 µM | > 100 µM |
| COc1ccc(/C=C(\C#N)n2nnc3c(F)cccc32)cc1 | 1.98 µM | > 100 µM | 0.2 µM | > 100 µM | 0.229 µM | 0.82 µM | 0.181 µM | 4.52 µM | 1.16 µM | > 47 µM | 0.456 µM | > 100 µM | 0.275 µM | 2.72 µM | 0.39 µM | > 100 µM | 0.122 µM | > 100 µM | 0.0645 µM | > 100 µM |
| COc1cc2nc(-c3cc(F)ccc3O)nc(N[C@@H]3CNC[C@H]3C(C)(C)O)c2cc1OC | 1.48 µM | 4.38 µM | 1.82 µM | 3.39 µM | 1.78 µM | 4.2 µM | 2.31 µM | 6.09 µM | 1.92 µM | 3.47 µM | 2.09 µM | 4.7 µM | 1.98 µM | 4.14 µM | 1.73 µM | 3.18 µM | 1 µM | 2.54 µM | 1.6 µM | 3.94 µM |
| Cn1cc(C2=C(c3cccc(OC[C@@H](O)CO)c3)C(=O)NC2=O)c2ccccc21 | 16.9 µM | > 25 µM | > 20.1 µM | > 25 µM | > 25 µM | > 25 µM | > 25 µM | > 25 µM | > 25 µM | > 25 µM | 16.1 µM | > 25 µM | 3.59 µM | > 25 µM | 11 µM | > 25 µM | 15.3 µM | > 25 µM | 17.3 µM | > 25 µM |
| Cc1cc[n+]2c(c1)-c1cc(C)cc[n+]1CC2 | – | > 100 µM | – | > 100 µM | – | > 100 µM | – | > 100 µM | – | > 100 µM | – | > 100 µM | – | > 100 µM | – | > 100 µM | – | > 100 µM | – | > 100 µM |
| C[C@]12CC[C@@H]3c4cc(OC(F)F)c(OS(N)(=O)=O)cc4CC[C@H]3[C@@H]1CC[C@@H]2O | 1.8 µM | 21.8 µM | 0.407 µM | 28.8 µM | 0.338 µM | 2.49 µM | 0.601 µM | 16.7 µM | 1.04 µM | 14 µM | 0.641 µM | > 64.4 µM | 0.252 µM | 1.03 µM | 0.422 µM | 16.6 µM | 0.485 µM | 44.1 µM | 0.364 µM | > 100 µM |
| Oc1cccc2ccc(N/N=C/c3cc(CN4CCOCC4)c(O)c4ncccc34)nc12 | 0.533 µM | 5.57 µM | – | 2.41 µM | 0.0298 µM | 1.49 µM | 0.0233 µM | 1.63 µM | 0.0368 µM | 1.93 µM | 0.053 µM | 5.62 µM | 0.0471 µM | 5.27 µM | 0.0267 µM | 3.41 µM | 0.0506 µM | 1.59 µM | 0.0152 µM | 6.03 µM |
| COc1ccc(-c2nc(/C=C3\SC(=NCc4ccccc4)NC3=O)c3ccccn23)cc1 | 2.47 µM | 10 µM | 1.68 µM | 3.45 µM | 2.1 µM | 5.11 µM | 1.39 µM | 5.76 µM | 1.68 µM | 4.83 µM | 2.72 µM | > 100 µM | 2.25 µM | 7.62 µM | 0.846 µM | 2.3 µM | 1.76 µM | 3.55 µM | 2.76 µM | > 100 µM |
| Cc1cc(C)nc(SC2=C(Nc3cc(Cl)ccc3O)C(=O)N(Cc3ccccc3)C2=O)n1 | 1.78 µM | 47.7 µM | 53 µM | > 160 µM | 33.3 µM | 70 µM | > 160 µM | > 160 µM | > 160 µM | > 160 µM | 6.14 µM | 31.4 µM | 36.8 µM | > 160 µM | 27.4 µM | 73.8 µM | > 160 µM | > 160 µM | 5.53 µM | > 160 µM |
| NS(=O)(=O)c1ccc(-c2cc3ccncc3cc2OCc2ccccc2)cc1 | > 19.9 µM | > 25 µM | > 22.9 µM | > 25 µM | 6.43 µM | > 19.3 µM | 25 µM | > 25 µM | > 25 µM | > 25 µM | > 13.6 µM | > 25 µM | > 18 µM | > 25 µM | > 20.2 µM | > 25 µM | > 23.8 µM | > 25 µM | > 19.6 µM | > 25 µM |
| CC1(C)CC(=O)C2=C(C1)OC(N)=C(c1nc(-c3ccccc3)cs1)C2c1ccc(Br)cc1 (configuration not stated) | 22.8 mg/L | 96.8 mg/L | 86 mg/L | > 150 mg/L | 69.2 mg/L | > 150 mg/L | 106 mg/L | > 150 mg/L | 44.4 mg/L | > 150 mg/L | 53.5 mg/L | > 150 mg/L | 142 mg/L | > 150 mg/L | 87.6 mg/L | > 150 mg/L | > 150 mg/L | > 150 mg/L | 68.8 mg/L | > 150 mg/L |
| COC1C(N)C(OC2C(Oc3cccc4c(O)c5c(=O)oc6ccc(C)c7c(=O)oc(c34)c5c67)OC(C)C(O)C2(C)O)OC(C)C1O (configuration not stated) | – | 0.169 µM | – | 1.61 µM | – | 9.48 µM | – | 12.1 µM | – | 0.336 µM | – | 1.96 µM | – | 1.21 µM | – | 0.366 µM | – | 1.45 µM | – | 1.56 µM |
| CCc1cccc(C)c1NC(=O)c1sc2nc3c(cc2c1N)C(=O)CCC3 | 13 µM | > 100 µM | 0.4 µM | > 100 µM | 0.327 µM | – | 0.768 µM | > 100 µM | 1.75 µM | > 100 µM | 2.62 µM | > 69.6 µM | 0.299 µM | > 100 µM | 0.455 µM | > 100 µM | 0.537 µM | > 100 µM | 0.422 µM | 22.4 µM |
| Cc1cc(N=Nc2ccccc2C)ccc1N | 10.3 µM | 30.8 µM and 27.8 µM | 14.8 µM | 48.5 µM and 30.8 µM | 0.486 µM | – | 13.7 µM | 25 µM and 43.2 µM | 22 µM | 24.9 µM and 53.5 µM | 0.967 µM | > 100 µM | – | 25.2 µM and 31.3 µM | 7.37 µM | 23.2 µM and 21.5 µM | 7.38 µM | 46.5 µM and 28.7 µM | 12.8 µM | 32.8 µM and > 100 µM |
| Oc1c(I)cc(I)c2cccnc12 | 4.51 µM | 29.2 µM | 3.74 µM | > 100 µM | 6.82 µM | > 100 µM | 2.48 µM | 8.84 µM | 2.44 µM | 7.34 µM | 7.53 µM | > 100 µM | 3.1 µM | 8.13 µM | 4.69 µM | > 100 µM | 3.17 µM | 14.2 µM | 5.01 µM | > 100 µM |
| O=C(O)c1cccc(C(=O)O)c1S(=O)Cc1ccccc1 (configuration not stated) | – | > 100 µM | – | > 100 µM | – | > 100 µM | – | > 100 µM | – | > 100 µM | – | – | – | > 100 µM | – | > 100 µM | – | > 100 µM | – | > 100 µM |
| COc1ccc(NC(=O)C2CCC(CNS(=O)(=O)c3ccccc3)CC2)cc1OC (configuration not stated) | > 100 µM | > 100 µM | > 100 µM | > 100 µM | > 100 µM | > 100 µM | > 100 µM | > 100 µM | > 100 µM | > 100 µM | > 100 µM | > 100 µM | > 100 µM | > 100 µM | > 100 µM | > 100 µM | > 100 µM | > 100 µM | – | – |
